Like-named read-outs stand apart in the source and are kept apart here.
What was measured:
SARS-CoV-2 [1] = test: microbe, parasite or virus in culture; assay type: cell-based; details: for IC50: Severe acute respiratory syndrome coronavirus 2, Vero C1008, SARS-CoV-2-induced cytopathic effect in Vero E6 cells; for Selectivity Index (SI): antiviral activity relative to cellular toxicity (CC50/IC50), Vero E6
in vitro = details: African green monkey
[2] = MTT cytotoxicity assay against normal cell line (Vero E6); details: African green monkey, Vero E6 cells
SARS-CoV-2 [3] = system: SARS-CoV-2; design: method as in PMID 34214752; details: cited from earlier work; for IC50: SARS-CoV-2 in Vero E6 cells, positive controls reported by the same laboratory
Vero E6 cells = details: positive controls reported by the same laboratory; cited from earlier work

## COc1cc2ccc(=O)oc2cc1O [Scopoletin, 7-hydroxy-6-methoxycoumarin]
SARS-CoV-2 [1]
  IC50: 17.8 ± 0.91 µM
  Selectivity Index (SI): 14.22
In vitro
  CC50: 253.1 ± 0.45 µM

## COc1c(O)cc2oc(=O)ccc2c1OC [Umckalin, 7-hydroxy-5,6-dimethoxycoumarin]
[2]
  CC50: 164.1 ± 0.54 µM
SARS-CoV-2 [1]
  IC50: 311.6 ± 0.043 µM
  Selectivity Index (SI): 0.5

## CCN(CC)CCCC(C)Nc1ccnc2cc(Cl)ccc12 (stereo not shown) [Chloroquine]
SARS-CoV-2 [3]
  IC50: 22.7 µM

## CCN(CCO)CCCC(C)Nc1ccnc2cc(Cl)ccc12 (stereo not shown) [Hydroxychloroquine]
SARS-CoV-2 [3]
  IC50: 32.8 µM
SARS-CoV-2 [3]; positive controls
  Selectivity Index (SI): 10.85
Vero E6 cells
  CC50: 356 µM

## Oc1cc(O)c2c(c1)O[C@H](c1ccc(O)c(O)c1)[C@@H](O)C2 [Catechin, (+)−catechin]
[2]
  CC50: 52.76 ± 0.079 µM
SARS-CoV-2 [1]
  IC50: 58.55 ± 0.088 µM
  Selectivity Index (SI): 0.9

## O=C(O)c1cc(O)c(O)c(O)c1 [Gallic acid, 3,4,5-trihydroxybenzoic acid]
SARS-CoV-2 [1]
  IC50: 96.41 ± 0.03 µM
  Selectivity Index (SI): 4.6
In vitro
  CC50: 439.7 ± 0.065 µM
